“Also recorded” adds a separate entry of the source.
Assays:
NCX3 = biological target: T1, NCX3 (Rattus norvegicus, UniProt P70549); assay: 45Ca2+ radiotracer fluxes (efflux/influx) in BHK-NCX3 cells; format: cell-based
T1 construct: expressed in transfected cells
Description: (§1) The activity of NCX was established by means of three different subclones of baby hamsted kidney (BHK) cells that were stably transfected with one of each NCX isoforms, named BHK-NCX1, BHK-NCX2 and BHK-NCX3. These cell lines were grown on plastic dishes in a mix of DMEM and Ham's F12 media (1:1) (Gibco, Invitrogen, MI, Italy) supplemented with 5% fetal bovine serum, 100 U/ml penicillin, and 100 µg/ml streptomycin (Sigma, St. Louis, Missouri, USA). Cells were cultured in a humidified 5% CO2 atmosphere and at the temperature of 37°C.
(§2) The activity of the Na^+/Ca^2+ exchanger was measured by means of ^45Ca^2+ radiotracer variations in the cytoplasm of cells exposed to a protocol stimulating the forward or the reverse mode of the antiporter. The BHK cells expressing each mutated or non-mutated NCX isoform were cultured in 12-well dishes and incubated in 145 mM NaCl for 10 minutes and then in a medium containing only 145 mM N-Methyl D-glucamine (NMDG) and 10 µM of ^45Ca^2+. This rapid substitution of the medium from a high level of Na^+ to another one without Na^+ allow the ^45Ca^2+ influx (reverse mode). Before the medium substitution cells was incubated with 1 mM ouabain, a Na^+/K^+ pump inhibitor, and 10 µM monensin, a ionophore for extracellular Na^+. After 30 seconds incubation, cells were washed with an ice-cold solution containing 2 mM La^3+ to stop ^45Ca^2+ uptake. The medium was removed and cells were subsequently lysed with 0.1 N NaOH and aliquots were taken to determine radioactivity and protein content.
In order to measure NCX activity in the forward mode, cells were firstly loaded with ^45Ca^2+ and subsequently exposed to a chemical protocol to stimulate the efflux of the radiotracer in the extracellular medium. In particular, cells were loaded with ^45Ca^2+ by using a solution containing 1 µM ionomycin, 145 mM Na^+ and ^45Ca^2+. Next, cells were exposed to a Ca^2+-free solution containing 2 mM EGTA. […] After 60 second, cells were lysed with […] NaOH and aliquots were taken to determine cytoplasmatic radioactivity. […]

NCX2 = biological target: T2, NCX2 (Rattus norvegicus, UniProt P48768); assay: Patch-clamp electrophysiology (whole-cell NCX currents), BHK-NCX2 cells; format: cell-based; settings: 10 nM, 10 minutes
T2 construct: expressed in transfected cells
T2 sequence (P48768 21-921): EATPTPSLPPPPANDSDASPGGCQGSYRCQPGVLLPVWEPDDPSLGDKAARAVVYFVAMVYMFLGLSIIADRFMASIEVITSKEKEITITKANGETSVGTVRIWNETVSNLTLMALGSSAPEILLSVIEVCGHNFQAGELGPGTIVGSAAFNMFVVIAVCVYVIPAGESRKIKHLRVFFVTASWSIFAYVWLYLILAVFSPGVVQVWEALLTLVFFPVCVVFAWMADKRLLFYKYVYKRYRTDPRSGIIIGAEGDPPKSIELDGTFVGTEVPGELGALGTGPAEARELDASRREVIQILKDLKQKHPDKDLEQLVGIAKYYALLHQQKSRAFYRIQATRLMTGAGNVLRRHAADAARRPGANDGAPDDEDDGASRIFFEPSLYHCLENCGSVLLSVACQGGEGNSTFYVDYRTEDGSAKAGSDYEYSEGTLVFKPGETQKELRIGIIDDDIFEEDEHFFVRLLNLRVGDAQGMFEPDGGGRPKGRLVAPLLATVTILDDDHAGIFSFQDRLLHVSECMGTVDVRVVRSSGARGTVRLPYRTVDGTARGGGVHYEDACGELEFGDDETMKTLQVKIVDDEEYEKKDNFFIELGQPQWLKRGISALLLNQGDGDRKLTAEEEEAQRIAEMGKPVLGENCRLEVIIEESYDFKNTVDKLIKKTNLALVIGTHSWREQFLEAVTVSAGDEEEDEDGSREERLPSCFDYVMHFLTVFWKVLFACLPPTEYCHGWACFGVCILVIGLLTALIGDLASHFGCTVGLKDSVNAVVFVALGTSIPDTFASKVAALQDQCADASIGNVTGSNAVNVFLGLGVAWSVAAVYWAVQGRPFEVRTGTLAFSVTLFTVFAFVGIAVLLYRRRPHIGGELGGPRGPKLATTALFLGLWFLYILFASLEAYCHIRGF
Description: To further investigate the effects of this compound on the Na^+/Ca^2+ exchanger activity, we performed electrophysiological experiments on BHK cells stably transfected with each of NCX isoforms (named BHK-NCX1, BHK-NCX2 and BHK-NCX3).
as §1
NCX currents (/NCX) was recorded from BHK wild-type and BHK stably transfected cells with NCX1, NCX2, and NCX3 and all each mutated of single isoforrms by patch-clamp technique in whole-cell configuration. […] Data were acquired and analyzed by use of pClamp software (version 9.0, Molecular Devices). In brief, /NCX was recorded starting from a holding potential of -60 mV up to a short-step depolarization at +60 mV (60 ms) (He et al., 2003; Xiao et al., 2004). […] The current recorded in the descending portion of the ramp (from +60 to -120 mV) was used to plot the current-voltage (I-V) relation curve. […]

N1-109/133 = biological target: T3, N1-109/133 (Canis lupus familiaris, UniProt P23685, N157G/T159I/V150L); assay: Na+-dependent 45Ca2+ uptake and efflux on NCX1/NCX3 chimera; format: cell-based; settings: 10 nM; NCX1 region 109-133 (α1) substituted with NCX3 segment
T3 construct: expressed in transfected cells
T3 sequence (P23685 33-970 V150L/N157G/T159I): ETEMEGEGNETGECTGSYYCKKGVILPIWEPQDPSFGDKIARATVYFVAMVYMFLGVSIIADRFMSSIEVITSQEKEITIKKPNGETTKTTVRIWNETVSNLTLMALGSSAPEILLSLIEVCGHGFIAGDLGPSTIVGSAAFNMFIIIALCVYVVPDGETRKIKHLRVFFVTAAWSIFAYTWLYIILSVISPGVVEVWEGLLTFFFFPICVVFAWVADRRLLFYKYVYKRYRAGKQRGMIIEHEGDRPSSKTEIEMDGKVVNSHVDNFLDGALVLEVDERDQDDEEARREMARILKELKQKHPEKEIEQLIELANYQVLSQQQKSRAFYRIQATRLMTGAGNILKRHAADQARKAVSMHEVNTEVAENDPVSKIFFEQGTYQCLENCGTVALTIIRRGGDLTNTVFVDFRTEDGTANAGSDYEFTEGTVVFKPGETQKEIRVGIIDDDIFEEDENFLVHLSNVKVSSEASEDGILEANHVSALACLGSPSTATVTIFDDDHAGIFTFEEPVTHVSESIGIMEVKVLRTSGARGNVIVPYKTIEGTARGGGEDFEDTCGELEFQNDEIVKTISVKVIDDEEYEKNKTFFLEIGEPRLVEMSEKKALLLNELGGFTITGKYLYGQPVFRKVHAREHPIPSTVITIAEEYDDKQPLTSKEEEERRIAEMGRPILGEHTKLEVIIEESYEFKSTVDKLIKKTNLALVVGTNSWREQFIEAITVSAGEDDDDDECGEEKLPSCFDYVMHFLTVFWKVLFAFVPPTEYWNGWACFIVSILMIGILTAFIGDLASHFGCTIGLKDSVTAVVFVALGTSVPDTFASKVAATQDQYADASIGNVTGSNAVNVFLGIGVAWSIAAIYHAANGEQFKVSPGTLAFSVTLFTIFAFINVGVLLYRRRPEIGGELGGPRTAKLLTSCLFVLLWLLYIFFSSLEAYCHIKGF
Excerpt: (§3) To deeper investigate on the regions and amino acids present on NCX1 responsible for the interaction with neurounina-1 compound, we utilized chimeric and site-mutated proteins. In particular, we generate chimeric proteins with a large sequence of NCX1 and some regions of NCX3 protein. […] By using the chimeric technique it is possible to determine the importance of NCX1 regions by substituting with analogue segments of NCX3 protein. […] Therefore, these two regions result to be involved in the pharmacological modulation of NCX1 from neurounina-1 compound.
(§4) All experiments aimed to identify the binding site of neurounina-1 were performed on BHK cells stably transfected with a single NCX chimera or mutant.
as §2
(§5) In order to measure NCX activity in the forward mode, cells were firstly loaded with ^45Ca^2+ and subsequently exposed to a chemical protocol to stimulate the efflux of the radiotracer in the extracellular medium. […] After 60 second, cells were lysed with […] NaOH and aliquots were taken to determine cytoplasmatic radioactivity.

N1-788/829 = biological target: T4, N1-788/829 (Canis lupus familiaris, UniProt P23685, L840F/Q858V/T855L/V852A); assay: as above; format: cell-based; settings: 10 nM; NCX1 region 788-829 (α2) substituted with NCX3 segment
T4 construct: expressed in transfected cells
T4 sequence (P23685 33-970 L840F/V852A/T855L/Q858V): as the sequence (P23685 33-970 V150L/N157G/T159I) above, with L118V, G125N, I127T, L808F, V820A, T823L, Q826V counted along it
Excerpt: as §3, §4, §2, §5

[1] = system: N3-(109/133-788/829) chimera; assay: as above; format: cell-based; settings: 10 nM; NCX3 with α1 and α2 regions of NCX1
Excerpt: as §3, §4, §2, §5

BHK cells = assay: Mitochondrial dehydrogenase activity (MTT); format: cell-based, hamster

T1 sequence (P70549 31-927): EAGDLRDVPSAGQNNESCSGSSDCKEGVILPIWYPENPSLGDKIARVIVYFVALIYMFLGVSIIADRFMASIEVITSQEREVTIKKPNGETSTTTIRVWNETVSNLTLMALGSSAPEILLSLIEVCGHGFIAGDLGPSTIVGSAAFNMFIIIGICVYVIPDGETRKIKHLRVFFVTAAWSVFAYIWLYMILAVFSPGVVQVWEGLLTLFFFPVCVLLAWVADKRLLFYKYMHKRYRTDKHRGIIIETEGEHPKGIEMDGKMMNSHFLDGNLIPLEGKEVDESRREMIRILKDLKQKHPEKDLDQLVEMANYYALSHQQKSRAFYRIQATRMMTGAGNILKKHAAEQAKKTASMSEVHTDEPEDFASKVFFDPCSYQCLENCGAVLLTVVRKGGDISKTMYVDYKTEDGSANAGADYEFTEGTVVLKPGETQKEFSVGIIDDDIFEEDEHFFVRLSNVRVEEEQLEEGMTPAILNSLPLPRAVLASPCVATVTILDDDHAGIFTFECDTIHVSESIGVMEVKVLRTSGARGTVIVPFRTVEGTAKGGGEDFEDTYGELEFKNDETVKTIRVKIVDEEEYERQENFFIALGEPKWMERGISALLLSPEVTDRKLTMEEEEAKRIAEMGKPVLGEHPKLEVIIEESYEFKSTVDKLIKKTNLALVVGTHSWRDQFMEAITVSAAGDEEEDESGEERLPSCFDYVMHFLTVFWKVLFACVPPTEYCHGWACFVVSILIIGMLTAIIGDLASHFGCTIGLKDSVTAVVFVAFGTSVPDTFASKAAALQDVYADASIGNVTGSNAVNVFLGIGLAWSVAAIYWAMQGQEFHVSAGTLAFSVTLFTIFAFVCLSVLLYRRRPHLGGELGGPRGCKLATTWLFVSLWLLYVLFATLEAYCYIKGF

O=C1CN=C(c2ccccc2)c2cc([N+](=O)[O-])ccc2N1CN1CCCC1 [neurounina-1, 7-nitro-5-phenyl-1-(pyrrolidin-1-ylmethyl)-1H-benzo[e][1,4]diazepin-2(3H)-one]
activity of NCX3, forward mode (NCX3; 45Ca2+ radiotracer, forward mode): did not significantly affect | activity of NCX3, reverse mode (NCX3; 45Ca2+ radiotracer, reverse mode): did not affect | NCX3 activity (NCX3; forward and reverse mode, patch clamp, Fura-2 microfluorimetry and 45Ca2+ fluxes (summary)): did not exert any effect | increased forward and reverse activity of NCX2 (NCX2): 30% | pharmacological effect on N1-109/133 chimera (N1-109/133): removed the pharmacological effect | pharmacological effect on N1-788/829 chimera (N1-788/829): removed the pharmacological effect | activity of N3-(109/133-788/829) chimera [1]: significantly increased activity | non-toxic concentration relative to EC50 (BHK cells; 10 µM versus EC50): ~10.000 times | mitochondrial activity (BHK cells; 10 µM, 24 hours, BHK cells): did not show any toxic effect; also recorded: did not affect

Source: EP2646421B1, “7-NITRO-5-PHENYL-1-(PYRROLIDIN-1-YLMETHYL)-1H-BENZO[E][1,4]DIAZEPIN-2(3H)-ONE AND OTHER BENZODIAZEPINE DERIVATIVES” (Pignataro, Giuseppe, priority 2010, dated 2012)
